Assay results: patent US6335339B1, “Triazine antiviral compounds” (Scriptgen Pharmaceuticals, Inc., priority 1998, dated 2002); call rule not given here

Tests used:
HIV derived RRE RNA = experiment: heterologous hybridization inhibition assay with RRE RNA; assay type: binding; conditions: radiolabeled RRE RNA, rRNA competitor
Excerpt: Specificity is further tested in a third assay in which the radiolabeled RNA is the HIV derived RRE RNA and the biotinylated oligonucleotide is complementary to RRE. Compounds with high specific activity for εRNA are not expected to be inhibitory in the RRE RNA based assay. The specificity of the ligand for εRNA is expressed as the ratio between the IC50 value obtained with the specific target RNA and the IC50 value obtained with a heterologous target (RRE RNA), both in the presence of competitor RNA.
(§1) Biotinylated oligonucleotides 262.104 A (5′-biotin-TTAGGCACAGCTTGGAGGCTTGAACAGTG-3′) and 208.92 A (5′-biotin-CGTCATTGACGCTGCGCCCA-3′) were synthetically prepared (Oligos Etc., Willsonville, Oreg.). These oligonucleotides are complementary to regions of the εRNA and RRE RNA targets, respectively.
Compounds that inhibited the primary screening assay described above were individually titrated in the same assay at concentrations between 0.1 μM and 200 μM in the absence and presence of 60-fold excess rRNA as a non-specific competitor. A third titration was performed in a heterologous assay using radiolabeled RRE RNA as the target and the complementary biotinylated oligonucleotide 208.92 A. From these three assays, the IC50 values and specificity for each compound was calculated.
IC50 values using rRNA competitor (from Example 1) and radiolabeled RRE RNA are shown in Table 1 for the following ligands. […] Specificity is calculated as the ratio of RRE+rRNA IC50/εRNA+rRNA IC50.

HBV εRNA = experiment: εRNA/oligonucleotide hybridization inhibition assay with rRNA competitor; assay type: binding, Hepatitis B virus; conditions: for IC50: radiolabeled εRNA, 60-fold excess rRNA competitor; for Specificity: ratio RRE+rRNA IC50/εRNA+rRNA IC50, max = inactive in RRE assay
Excerpt: One assay used in determining the activity of the compounds of the present invention is disclosed in copending U.S. patent application Ser. No. 08/709,342, filed Sep. 6, 1996, the disclosure of which is hereby incorporated herein by reference in its entirety. The assay detects the interaction between target RNA molecule and a test ligand by measuring the ligand's ability to inhibit hybridization between the RNA and a specific complementary oligonucleotide. In one embodiment, the target RNA is radiolabelled and the oligonucleotide is labeled with biotin; in this case, the extent of hybridization is determined by measuring the amount of radiolabeled RNA detected with a streptavidin/biotin-based capture system.
Concentrations of test compounds of between about 0.1 μM and about 200 μM are assayed for inhibition using radiolabeled εRNA in the absence or presence of a large excess of an unlabeled non-specific RNA competitor (such as, e.g., ribosomal RNA, rRNA). Compounds that bind εRNA non-specifically are competitively displaced by the rRNA, resulting in reduced or no inhibition of hybridization between the radiolabeled εRNA and the biotinylated oligonucleotide. Conversely, the inhibitory activity of compounds that specifically bind εRNA is not affected by the presence of the competitor rRNA.
The high throughput assays were performed in 96-well plates containing eighty drugs (5 μl, 60 μg/ml in DMSO) distributed one per well in columns 2-6 and 8-12 of the 8×12 96-well array. The remaining 16 wells in columns 1 and 7 were filled with 5 μl DMSO to serve as the control reactions. 45 μl of reaction mixture containing buffer, salts and radiolabeled target RNA were delivered on each well of the compound-containing plates to yield a 50 μl mixture containing 50 mM Tris-HCl, pH 7.5, 200 mM KCl, 5 mM MgCl2, 5 mM DTT, 6 μg/ml test compound, and 25 nM [^32 P]-labeled εRNA. The reaction was started by addition of the biotinylated oligonucleotide, 262.104 A (5 μl) to a final concentration of 100 nM. The reaction was incubated at 25° C. for 60 minutes, and then 5 μl of 0.3 mg/ml SAAP (streptavidin alkaline phosphatase conjugate, Pierce, Rockford, Ill.) was added. The reaction was incubated for an additional 30 minutes at 25° C. and filtered through 96-well format HATF nitrocellulose filters (Millipore, Bedford, Mass.) using a multiscreen vacuum manifold (Millipore, Bedford, Mass.). Subsequently, 300 μl of wash buffer (50 mM Tris-HCl, pH 7.5, 200 mM KCl) was filtered through to wash the filters. The filters were dried and supplemented with 20 μl scintillation fluid (Super Mix, Wallac Oy, Turku, Finland). The amount of hybrids formed was determined by scintillation counting of the radiolabeled εRNA retained on the filters.
The inhibitory effect of a test compound (expressed as percentage of inhibition, % Inh.) was calculated using the following formula: […]
where Ro is the average retention of hybrids in the 16 identical control reactions in columns 1 and 7 and Rx is the hybrids retained in the presence of a test drug, x.
as §1
A plasmid containing the target sequence following the bacteriophage SP6 promoter was used as a template for the synthesis of radiolabeled εRNA using [α^32 P]-UTP and SP6 RNA polymerase as described by the suppliers, e.g., Ambion, Austin, Tex., and by methods well known to those of ordinary skill in the art.
Compounds that inhibited the primary screening assay described above were individually titrated in the same assay at concentrations between 0.1 μM and 200 μM in the absence and presence of 60-fold excess rRNA as a non-specific competitor. […]

SMILES	RRE + rRNA IC50 (μM) (HIV derived RRE RNA)	IC50 (HBV εRNA)	Specificity (HBV εRNA)	IC50 (HIV derived RRE RNA)
O=[N+]([O-])c1ccc(Nc2nc(NN=CC(Br)=Cc3ccccc3)nc(Nc3ccccc3)n2)cc1 [Compound 17]	inactive	15.1 µM	max.	–
CCCCN(CCCC)c1nc(NN=Cc2ccc(O)c(O)c2)nc(Nc2ccc([N+](=O)[O-])cc2)n1 [Compound 26]	inactive	15 µM	max.	–
CCCCN(CCCC)c1nc(N/N=C/C(C)=C/c2ccccc2)nc(Nc2ccc([N+](=O)[O-])cc2)n1 [Compound 31]	inactive	30 µM	max.	–
Nc1cccc(Nc2nc(Nc3cccc(N)c3)nc(N(c3ccccc3)c3ccccc3)n2)c1 [Compound 32]	inactive	32.6 µM	max.	–
COc1ccc(Nc2nc(NN=Cc3c[nH]c4ccccc34)nc(Nc3ccccc3)n2)cc1 [Compound 36]	–	28.9 µM	53.8	1550 µM
O=[N+]([O-])c1ccc(Nc2nc(NN=Cc3c4ccccc4cc4ccccc34)nc(N3CCCCC3)n2)cc1 [Compound 37]	inactive	30.1 µM	max.	–
O=[N+]([O-])c1ccc(Nc2nc(NN=Cc3cccc(Br)c3)nc(N3CCCCCC3)n2)cc1 [Compound 45]	inactive	39.9 µM	max.	–
O=[N+]([O-])c1ccc(Nc2nc(NN=Cc3ccc(-c4ccc([N+](=O)[O-])cc4)o3)nc(N3CCCC3)n2)cc1 [Compound 47]	inactive	25 µM	max.	–
O=[N+]([O-])c1ccc(Nc2nc(NN=Cc3ccccc3F)nc(N3CCCCCC3)n2)cc1 [Compound 48]	inactive	30 µM	max.	–
COc1ccc([N+](=O)[O-])cc1C=NNc1nc(NCc2ccccc2)nc(Nc2ccccc2)n1 [Compound 54]	inactive	89.9 µM	max.	–
CCCCN(CCCC)c1nc(N/N=C/c2c3ccccc3cc3ccccc23)nc(Nc2ccc([N+](=O)[O-])cc2)n1 [Compound 55]	inactive	100 µM	max.	–
O=[N+]([O-])c1ccc(Nc2nc(NN=Cc3ccc(Cl)c(Cl)c3)nc(N3CCCCC3)n2)cc1 [Compound 57]	inactive	50.1 µM	max.	–
Cc1ccc(Nc2nc(NN=Cc3ccc(Br)cc3)nc(Nc3ccccc3)n2)c(C)c1 [Compound 59]	inactive	90.1 µM	max.	–
CCCCN(CCCC)c1nc(NN=Cc2c(C)[nH]c3ccccc23)nc(Nc2ccc([N+](=O)[O-])cc2)n1 [Compound 60]	inactive	100 µM	max.	–
O=[N+]([O-])c1cccc(C=NNc2nc(Nc3cccc4ccccc34)nc(N3CCOCC3)n2)c1O [Compound 64]	inactive	71.9 µM	max.	–
Cc1ccc(C=NNc2nc(Nc3ccccc3)nc(Nc3ccc([N+](=O)[O-])cc3)n2)cc1 [Compound 66]	inactive	114 µM	max.	–
O=[N+]([O-])c1ccc(Nc2nc(NN=Cc3ccc(-c4ccc([N+](=O)[O-])cc4)o3)nc(N3CCOCC3)n2)cc1 [Compound 69]	inactive	70 µM	max.	–
Brc1cc2c(cc1C=NNc1nc(Nc3ccccc3)nc(N3CCCCC3)n1)OCO2 [Compound 70]	inactive	80.6 µM	max.	–
Fc1ccc(Nc2nc(Nc3cccc(C(F)(F)F)c3)nc(N3CCOCC3)n2)cc1 [Compound 71]	inactive	99.9 µM	max.	–
CCCCN(CCCC)c1nc(NN=Cc2cc(Br)cc(Br)c2OC)nc(Nc2ccc([N+](=O)[O-])cc2)n1 [Compound 72]	inactive	120 µM	max.	–
Clc1ccccc1C=NNc1nc(Nc2ccccc2)nc(N2CCOCC2)n1 [Compound 73]	inactive	120 µM	max.	–
COc1ccc(/C=N/Nc2nc(Nc3ccc([N+](=O)[O-])cc3)nc(N3CCOCC3)n2)cc1 [Compound 75]	inactive	160 µM	max.	–
Cc1ccc(Nc2nc(NN=Cc3ccc(-c4cccc(C(=O)O)c4)o3)nc(Nc3ccc([N+](=O)[O-])cc3)n2)cc1C [Compound 76]	inactive	200 µM	max.	–
O=[N+]([O-])c1ccc(Nc2nc(NN=Cc3cccc(F)c3)nc(N3CCCCCC3)n2)cc1 [Compound 78]	inactive	133 µM	max.	–
C(=N\Nc1nc(Nc2ccccc2)nc(N2CCOCC2)n1)/c1c[nH]c2ccccc12 [Compound 79]	inactive	169 µM	max.	–
O=[N+]([O-])c1ccc(Nc2nc(N/N=C/c3ccccc3)nc(N3CCCCCC3)n2)cc1 [Compound 80]	inactive	200 µM	max.	–
Cc1ccc(Nc2nc(NN=Cc3ccc(O)cc3)nc(Nc3ccccc3)n2)c(C)c1 [Compound 81]	inactive	120 µM	max.	–
